One data set has as its system DegS. The experiment in a line: Rse- protease degradation assay. It counts as biochemical, Escherichia coli. The note with it: DegS 25 μM, phosphate buffer pH 7.5, 37°C. As to the method:
(§1) FIG 1 Degradation of MucA and MucB by AlgW in response to the peptides and lipid signals. (A and B) MucB/RseB (130 μM) was cleaved by AlgW/DegS (25 μM) in the presence of different agonist combinations, including lipid-A (100 μM), lipid-like detergent DDM (400 μM), decapeptide SVRDELRWVF (100 μM), and decapeptide combined with lipid-A or DDM. (C and D) MucB/RseB-protected MucA^peri/RseA^peri degradation by AlgW/DegS in the presence of different lengths of the activating peptides in a time-dependent manner. MucA^peri (125 μM), AlgW (25 μM), MucB (130 μM), activation peptides (tripeptide WVF or decapeptide SVRDELRWVF, 100 μM), and lipid-A (100 μM) were incubated at 37°C in a time-dependent manner in buffer (25 mM Tris-HCl pH 7.5, 150 mM NaCl). Similarly, RseA^peri (125 μM) was cleaved by DegS (25 μM) in the presences of RseB (130 μM), activation peptides (tripeptide YYF or decapeptide DNRDGNVYYF, 100 μM), and lipid-A (100 μM) at 37°C in a time-dependent manner in a phosphate buffer containing 50 mM NaHPO4 (pH 7.5), 200 mM NaCl, 10% glycerol, and 4 mM EDTA. (E and F) MucA^peri/RseA^peri was cleaved by AlgW/DegS in the presence of different agonist combinations in a time-dependent manner. MucA^peri (125 μM), AlgW (25 μM), activation decapeptide SVRDELRWVF (100 μM), and lipid-A (100 μM) were incubated at 37°C in a time-dependent manner in buffer. […]

The subject of data set [1] is AlgW. Description: Quenched fluorescent substrate cleavage by peptide/lipid-activated AlgW (substrate versus velocity). It counts as biochemical, Pseudomonas aeruginosa. The note with it: three independent determinations; for Km / Vmax: substrate gradient 3.125-300 μM, Hill fit; for Km / Hill constants: Tris pH 7.5, 37°C; for Hill constants: substrate gradient; for Vmax: 25 mM Tris pH 7.5, 150 mM NaCl, 37°C, 1 h, fluorescence ex 310/em 420 nm. On the procedure:
FIG 2 Determination of enzyme apparent kinetic parameters of dual-signal-activated AlgW. (A) Activity assay of tripeptide or decapeptide-activated AlgW using the quenched fluorescent substrates Abz-VLAG-pNA, Abz-TVAW-pNA, and Abz-AAAA-pNA. All assays were placed in a buffer containing 25 mM Tris (pH 7.5) and 150 mM NaCl at 37°C for 1 h by adding 100 μM substrate, 200 nM AlgW, and 10 mM agonist peptides (tripeptide WVF or decapeptide SVRDELRWVF). (B) The apparent Michaelis-Menten parameters of AlgW cleavage quenched fluorescent substrates Abz-VLAG-pNA (100 μM) under the condition of peptide or lipid activation. (C) The activity assay of peptide or DDM activated AlgW using the saturated quenched fluorescent substrates Abz-VLAG-pNA. Under the gradient of peptide or DDM concentration,100 μM substrate and 200 nM AlgW were coincubated with or without 400 μM DDM or 10 mM agonist peptides in a buffer containing 25 mM Tris (pH 7.5) and 150 mM NaCl at 37°C for 1 h. The final assay volume of all experiments was 100 μl, and the appearance of fluorescent products was monitored at 60-s intervals at fluorescence wavelengths of λex = 310 nm and λem = 420 nm. All data points were representative of three independent determinations and were simulated with solid lines through the formula of Y = Vmax · X^h/(Km^h + X^h) or Y = Vmax · X^h/(Khalf^h + X^h). The Kcat for the AlgW trimer was calculated by Kcat = Vmax/(Etotal), (Etotal) = 200/3 nM trimers. Error bars represent the standard deviation.
For the enzyme mechanism of AlgW (30–389) and mutants, two internally quenched fluorescent peptide substrates incorporating the peptidase cleavage site of MucA/MucB, Abz-VLAG-pNA and Abz-TVAW-pNA, were designed and synthesized (GL Biochem Shanghai Ltd., China). In the intact peptide, the fluorescence of the anthraniloyl group is quenched by the P-nitroaniline (Abz is a fluorogenic group, and pNA is a quencher of fluorescence). This quenched fluorescence is liberated upon cleavage of peptide by 200 nM AlgW and mutants (200/3 nM for trimer), resulting in increased fluorescence that can then be monitored fluorometrically. Prior to the assay, all enzyme preparations were incubated with 10 mM agonist peptides (WVF or SVRDELRWVF) for 30 min at room temperature. All assays were placed in a buffer containing 25 mM Tris (pH 7.5) and 150 mM NaCl at 37°C for 1 h, and the final assay volume was 100 μl. The fluorescent degradation products were monitored at 60-s intervals at fluorescence wavelength—λex = 310 nm, λem = 420 nm ([41]). All data points were representative of three independent determinations and were simulated with solid lines with the formula Y = Vmax · X^h/(Km ^h + X^h) or Y = Vmax · X^h/(Khalf^h + X^h) or the Michaelis-Menten formula (Y = Vmax · X/[Km + X]). Substrate versus velocity was used to determine Km and Vmax, and agonists versus velocity was used to determine the half-maximal activation concentration and maximum activation rate of agonists. The fitting and calculation of data were carried out using Prism 7 (GraphPad, CA, USA).
All experiments were performed in independent biological triplicate, and the results of replicates were consistent. The fitting and calculation of data were carried out with Prism 7 (GraphPad, CA, USA). All the enzyme kinetic data points were representative of three independent determinations and were simulated with solid lines through the formula Y = Vmax · X^h/(Km^h + X^h) or Y = Vmax · X^h/(Khalf^h + X^h) or the Michaelis-Menten formula (Y = Vmax · X/[Km + X]). Substrate versus velocity was used to determine Km and Vmax, and agonists versus velocity was used to determine the half-maximal activation concentration and maximum activation rate of agonists; error bars represent the standard deviation.

A further data set deals with T1, AlgW-DegS-LA (63–78).
T1 construct: residues 30-389; LA loop 76-97 replaced by the corresponding region 63-78 of DegS
Description: Fluorogenic Abz-VLAG-pNA cleavage by peptide-activated AlgW and LA loop mutants (200 nM), 25 mM Tris pH 7.5, 150 mM NaCl, 37°C, Michaelis-Menten fit. The note with it: n = 3. It counts as biochemical. On the procedure: Based on the identified MucA and MucB cleavage sites for AlgW ([6], [13]), self-quenching fluorogenic tetrapeptides derived from 134-VLAG-137 of MucA (Abz-VLAG-pNA), 211-TVAW-214 of MucB (Abz-TVAW-pNA), and alanine tetrapeptide (Abz-AAAA-pNA) were synthesized and subjected to real-time measurement of AlgW proteolytic activity in the presence of excessive peptides (10 mM) (Fig. 2A). Compared with the negative-control group (using Abz-AAAA-pNA substrate), both Abz-VLAG-pNA and Abz-TVAW-pNA could be efficiently cleaved by AlgW. […]
For the enzyme mechanism of AlgW (30–389) and mutants, two internally quenched fluorescent peptide substrates incorporating the peptidase cleavage site of MucA/MucB, Abz-VLAG-pNA and Abz-TVAW-pNA, were designed and synthesized (GL Biochem Shanghai Ltd., China). In the intact peptide, the fluorescence of the anthraniloyl group is quenched by the P-nitroaniline (Abz is a fluorogenic group, and pNA is a quencher of fluorescence). This quenched fluorescence is liberated upon cleavage of peptide by 200 nM AlgW and mutants (200/3 nM for trimer), resulting in increased fluorescence that can then be monitored fluorometrically. […] The fluorescent degradation products were monitored at 60-s intervals at fluorescence wavelength—λex = 310 nm, λem = 420 nm ([41]). […]

The subject of data set [2] is AlgW. Description: Muc- protease degradation assay. The note with it: MucB 130 μM, AlgW 25 μM; lipid-A 100 μM, DDM 400 μM or decapeptide 100 μM; 25 mM Tris-HCl pH 7.5, 150 mM NaCl, 37°C; 30 min; gel bands. It counts as biochemical, Pseudomonas aeruginosa. On the procedure:
as §1

Data set [3] deals with the molecule itself. Description: crystal structure; protein mixed with peptide activator (tripeptide WVF or decapeptide …) prior to crystallization; hanging-drop vapor diffusion at 18°C; molecular replacement.
Setting [4] is: decapeptide SVRDELRWVF (10 mM) activated AlgW 200 nM.
Setting [5] is: decapeptide SVRDELRWVF (10 mM, 30 min RT pre-incubation) activated AlgW 200 nM.
[6] abbreviates: tripeptide WVF (10 mM) activated AlgW 200 nM.
Where [7] appears, read: tripeptide WVF (10 mM, 30 min RT pre-incubation) activated AlgW 200 nM.

As a reminder, the Km is the concentration of substrate that gives half-maximal velocity. Broadly, the Vmax is the rate approached at saturating substrate. The term stoichiometry N denotes the number of molecules, sites or subunits per partner or assembly.

Values joined by “and” are separate entries in the source; they are usually repeats but may differ in a detail not shown here. Identical values can stand only once. Non-standard residues stand in square brackets, D forms with d. Residues, ends and D or L forms follow the SMILES beside them. *: point of attachment. pNA = O=[N+]([O-])c1ccc(N*)cc1; 2Abz = Nc1ccccc1C(=O)O

In the case of DNRDGNVYYF, the “RseB cleavage by DegS” value in the data set with DegS (RseB 130 μM, decapeptide 100 μM) is given as “no proteolysis was noticed”.
On to `CC(C)[C@H](NC(=O)[C@@H](NC(=O)c1ccccc1N)[C@@H](C)O)C(=O)N[C@@H](C)C(=O)N[C@@H](Cc1c[nH]c2ccccc12)C(=O)Nc1ccc([N+](=O)[O-])cc1` [Abz-TVAW-pNA] (H-[2Abz]TVAW-pNA), for which the results for the Km in the data set on AlgW [1] (setting [4]) and with AlgW [1] (setting [6]) were 26.9 ± 1.48 µM and 25.1 ± 1.93 µM, respectively. Besides, the Hill constants with AlgW [1] (setting [4]) was 1.26 and 1.26 ± 0.07; in the data set with AlgW [1] (setting [6]), 1.25 and 1.25 ± 0.09. In addition, the Vmax came to 319.5 ± 6.42 µM/min in the data set with AlgW [1] (setting [5]) and 264.1 ± 7.31 µM/min in the data set on AlgW [1] (setting [7]).
Regarding `CC(C)C[C@H](NC(=O)[C@@H](NC(=O)c1ccccc1N)C(C)C)C(=O)N[C@@H](C)C(=O)NCC(=O)Nc1ccc([N+](=O)[O-])cc1` [Abz-VLAG-pNA] (H-[2Abz]VLAG-pNA), the Michaelis constant (Km) with AlgW [1] (setting [4]) worked out at 50.1 ± 9.65 µM; in the data set on AlgW [1] (setting [6]), 14.8 ± 2.16 µM. Also, the Hill constants with AlgW [1] (setting [4]) was ~1 and 0.95 ± 0.09; with AlgW [1] (setting [6]) it was 1.51 ± 0.29. The results for the Vmax in the data set with AlgW [1] (setting [5]) and in the data set on AlgW [1] (setting [7]) were 187 ± 12.83 µM/min and 81.23 ± 4.02 µM/min, respectively.
For the molecule `CC(C)C[C@H](NC(=O)[C@@H](NC(=O)c1ccccc1N)C(C)C)C(=O)N[C@@H](C)C(=O)NCC(=O)Nc1ccc([N+](=O)[O-])cc1` [Abz-VLAG-pNA, anthraniloyl-Val-Leu-Ala-Gly-p-nitroaniline (quenched fluorogenic tetrapeptide, MucA 134-137)] (H-[2Abz]VLAG-pNA), in the data set on AlgW-DegS-LA (63–78), the Km worked out at 12 ± 2.85 µM.
For lipid-A, in the data set with AlgW [2], the “MucB cleavage by AlgW” value is “could be activated”. Further, the “RseA^peri degradation by DegS” value in the data set with DegS (RseA^peri 125 μM, lipid-A 100 μM with or without decapeptide DNRDGNVYYF 100 μM) is “did not display obvious direct or cooperative activation”.

B1: AlgW_(52-389), periplasmic soluble domain of AlgW for crystallization (enzyme)
chain: PVSYANAVSRAAPAVANLYTTKMVSKPSHPLFDDPMFRRFFGDNLPQQKRMESSLGSAVIMSAEGYLLTNNHVTAGADQIIVALRDGRETIAQLVGSDPETDLAVLKIDLKNLPAMTLGRSDGIRTGDVCLAIGNPFGVGQTVTMGIISATGRNQLGLNTYEDFIQTDAAINPGNSGGALVDAAGNLIGINTAIFSKSGGSQGIGFAIPTKLALEVMQSIIEHGQVIRGWLGVEVKALTPELAESLGLGETAGIVVAGVYRDGPAARGGLLPGDVILTIDKQEASDGRRSMNQVARTRPGQKISIVVLRNGQKVNLTAEVGLRPPPAPAPQQKQDGGE
notes: Vector pET22b-(LEVLFQ/GP)-6xHis has a PreScission site that allows removal of the His tag; source: E. coli BL21(DE3), purified (Ni-NTA, Superdex-75 SEC)
On to B1, for which the “stoichiometry N” value in data set [3] came out at 3.

B2: AlgWS227A (inactive mutant of the periplasmic soluble domain of AlgW, for crystallization) (enzyme)
chain: PVSYANAVSRAAPAVANLYTTKMVSKPSHPLFDDPMFRRFFGDNLPQQKRMESSLGSAVIMSAEGYLLTNNHVTAGADQIIVALRDGRETIAQLVGSDPETDLAVLKIDLKNLPAMTLGRSDGIRTGDVCLAIGNPFGVGQTVTMGIISATGRNQLGLNTYEDFIQTDAAINPGNAGGALVDAAGNLIGINTAIFSKSGGSQGIGFAIPTKLALEVMQSIIEHGQVIRGWLGVEVKALTPELAESLGLGETAGIVVAGVYRDGPAARGGLLPGDVILTIDKQEASDGRRSMNQVARTRPGQKISIVVLRNGQKVNLTAEVGLRPPPAPAPQQKQDGGE
notes: AlgW of Pseudomonas aeruginosa, residues 52-389 (construct for crystallization), catalytic serine S227 changed to alanine; source: E. coli BL21(DE3), purified (Ni-NTA, Superdex-75 SEC)
As for B2, in data set [3], the “stoichiometry N” value is 3.

The values above are taken from PMC8545111, “Molecular Basis of the Versatile Regulatory Mechanism of HtrA-Type Protease AlgW from Pseudomonas aeruginosa” (mBio, 2021).
